Assay [1] addresses Sodium-dependent noradrenaline transporter (Homo sapiens, UniProt P23975). Briefly: On the day of the experiment, the cells were removed from −80° C. or liquid nitrogen and thawed in a room temperature water bath. The cells were dilute to about 1-2E+06 with Freestyle medium. A 1 mL sample (1:2 dilution) was prepared, and the cells were counted. The cells were spun at 1100 rpm for 5 minutes, and the medium was aspirated off. The cells were resuspend in medium at 1.5E+06 cells/mL for about 60,000 cells per well. 40 μL of cells were dispensed per well in the Biocoat plates. The plates were spun at 1100 rpm for 1 minute to improve homogeneity of the cell layer and were incubated at 37° C. for a minimum of 3 hours. The class given is cell-based.

Assay [2] deals with Sodium-dependent dopamine transporter (Homo sapiens, UniProt Q01959). Briefly: On the day of the experiment, the cells were removed from −80° C. or liquid nitrogen and thawed in a room temperature water bath. The cells were dilute to about 1-2E+06 with Freestyle medium. A 1 mL sample (1:2 dilution) was prepared, and the cells were counted. The cells were spun at 1100 rpm for 5 minutes, and the medium was aspirated off. The cells were resuspend in medium at 1.5E+06 cells/mL for about 60,000 cells per well. 40 μL of cells were dispensed per well in the Biocoat plates. […] The neurotransmitter transporter dye was prepared in AB prior to use. Type of assay: cell-based.
Sodium-dependent dopamine transporter, sequence (Q01959 whole entry): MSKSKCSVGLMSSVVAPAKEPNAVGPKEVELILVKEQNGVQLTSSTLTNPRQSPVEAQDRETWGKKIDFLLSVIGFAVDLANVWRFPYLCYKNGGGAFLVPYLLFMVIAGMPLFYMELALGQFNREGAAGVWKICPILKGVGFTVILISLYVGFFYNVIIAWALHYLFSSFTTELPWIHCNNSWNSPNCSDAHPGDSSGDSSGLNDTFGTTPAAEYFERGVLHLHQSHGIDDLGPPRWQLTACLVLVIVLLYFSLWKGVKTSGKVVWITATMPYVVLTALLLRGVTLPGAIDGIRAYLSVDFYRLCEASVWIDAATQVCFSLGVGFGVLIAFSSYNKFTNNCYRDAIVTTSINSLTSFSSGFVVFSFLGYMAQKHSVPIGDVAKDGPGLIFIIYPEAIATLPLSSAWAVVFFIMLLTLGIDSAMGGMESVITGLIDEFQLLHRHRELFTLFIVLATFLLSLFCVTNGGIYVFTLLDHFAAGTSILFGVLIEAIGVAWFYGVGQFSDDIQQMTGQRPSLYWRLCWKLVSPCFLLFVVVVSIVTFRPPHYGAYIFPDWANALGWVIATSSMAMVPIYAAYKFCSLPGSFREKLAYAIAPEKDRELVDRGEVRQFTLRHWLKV

Sodium-dependent noradrenaline transporter, sequence (P23975 whole entry): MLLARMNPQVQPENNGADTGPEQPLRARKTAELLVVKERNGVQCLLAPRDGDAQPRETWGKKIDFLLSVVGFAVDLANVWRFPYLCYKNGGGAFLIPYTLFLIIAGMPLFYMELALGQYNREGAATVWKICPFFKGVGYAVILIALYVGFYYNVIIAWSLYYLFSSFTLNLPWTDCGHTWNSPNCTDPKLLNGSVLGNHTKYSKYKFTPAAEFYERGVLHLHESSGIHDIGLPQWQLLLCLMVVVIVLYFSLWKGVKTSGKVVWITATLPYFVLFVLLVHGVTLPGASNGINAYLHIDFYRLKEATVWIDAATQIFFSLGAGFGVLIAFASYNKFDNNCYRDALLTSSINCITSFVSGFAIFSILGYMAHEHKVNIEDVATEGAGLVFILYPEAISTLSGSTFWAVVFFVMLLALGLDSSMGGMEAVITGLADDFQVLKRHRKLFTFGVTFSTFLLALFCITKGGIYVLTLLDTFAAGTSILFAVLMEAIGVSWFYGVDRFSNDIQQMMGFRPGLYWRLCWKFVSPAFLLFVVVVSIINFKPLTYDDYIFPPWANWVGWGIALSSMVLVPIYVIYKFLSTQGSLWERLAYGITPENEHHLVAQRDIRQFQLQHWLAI

Consider `CNCC(c1ccc(F)c(Cl)c1)[C@H](O)c1ccccc1` (some centres not stated), for which the Ki (in general, the dissociation constant of the complex between target and ligand, obtained from inhibition or displacement) in assay [1] came to 10.2 nM; in assay [2], 56.6 nM.
